{
  "source": "patent US10370425B2",
  "about": "“Peptide antagonists of the calcitonin CGRP family of peptide hormones and their use” (priority 2012, dated 2019)",
  "target": "T1, amylin receptor, AMY1, a CT (calcitonin) receptor/RAMP1 (receptor-activity modifying protein) complex (Homo sapiens, UniProt O60894+P30988)",
  "T1 construct": "host or cells: CHO-K1/AMY1/Gα15",
  "T1 sequence (P30988 25-474)": "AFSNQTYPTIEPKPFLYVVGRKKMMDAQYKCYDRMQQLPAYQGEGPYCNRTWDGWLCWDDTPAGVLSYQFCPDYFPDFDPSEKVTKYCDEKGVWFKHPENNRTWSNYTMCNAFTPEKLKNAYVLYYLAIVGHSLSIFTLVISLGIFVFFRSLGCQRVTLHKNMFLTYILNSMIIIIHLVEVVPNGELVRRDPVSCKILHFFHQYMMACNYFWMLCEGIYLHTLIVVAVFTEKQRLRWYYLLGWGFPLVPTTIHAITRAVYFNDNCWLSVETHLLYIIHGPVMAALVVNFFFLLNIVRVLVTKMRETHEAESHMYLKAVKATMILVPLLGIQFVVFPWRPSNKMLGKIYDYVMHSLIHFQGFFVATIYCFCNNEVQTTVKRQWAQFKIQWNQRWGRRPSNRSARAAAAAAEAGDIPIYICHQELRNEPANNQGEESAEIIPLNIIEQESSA",
  "T1 sequence (O60894 27-148)": "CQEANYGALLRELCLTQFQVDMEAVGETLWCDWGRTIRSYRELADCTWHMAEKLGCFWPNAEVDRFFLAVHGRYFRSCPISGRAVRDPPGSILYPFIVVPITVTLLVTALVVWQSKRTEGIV",
  "test": "Calcium flux assay (FLIPR Calcium 4) of inhibition of α-CGRP stimulation in CHO-K1/AMY1/Gα15 cells",
  "format": "cell-based",
  "conditions": "at maximal test concentration (series starts with 1 μM); CHO-K1/AMY1/Gα15 cells stimulated with 32 nM (EC80) α-CGRP; n = 2; read-out: % Inhibition @ Maximal concentration (Mean +/− SD, n = 2)",
  "description": "Using a calcium flux assay, the dose-dependent inhibitory response of peptide antagonists of the present invention on an amylin receptor, AMY1, a CT (calcitonin) receptor/RAMP1 (receptor-activity modifying protein) complex was determined. The recombinant cell line CHO-K1/AMY1/Gα15 (GenScript, Piscataway, N.J., Catalog No. M00475) was employed in the assay. Peptide antagonist activities were tested, in duplicate, at five different concentrations, starting with 1 μM and serially diluted five-fold, in DMSO. AC187 (SEQ ID NO: 55), a known amylin receptor antagonist (available for example from Tocris Bioscience, Minneapolis, Minn., Catalog No. 3419) was used as a positive control in the assays, and human α-CGRP, a known amylin receptor agonist (SEQ ID NO:56) , (available for example from Tocris Bioscience, Minneapolis, Minn., Catalog No. 3012) was used as a positive control in the assays. The FLIPR® Calcium 4 Assay Kit (Molecular Devices, Sunnyvale, Calif.) was used.\nHuman α-CGRP having the amino acid sequence, NH2-[…]-NH2 (SEQ ID NO:56) and AC187 having the sequence […] (SEQ ID NO: 55) were employed as negative and positive controls, respectively. Stock solutions were further diluted in HBSS-HEPES buffer to make 5×final control solutions.\nCHO-K1/AMY1/Gα15 cells were seeded in a 384-well black wall, clear bottom plate at a density of 20,000 cells/well in 20 μL of growth medium 20 hours prior to the day of the experiment and maintained at 37° C./5% CO2.\nPer the assay kit protocol, dye-loading solution (at 2×final concentration) was added into the assay plate, 20 μL per well. Compound solution (at 5 ×final concentration) was added into the assay plate, 10 uL per well. The assay plate was placed into a 37° C. incubator for 1 hour, then left for 15 min at RT. The agonist plate (at 5×EC80 concentration) was placed in Source 2. The total reading time was 120 sec. The agonist was added after 20 seconds reading of the baseline and the fluorescence signal was captured for another 100 seconds (21 s to 120 s).\nIn screening, cells stimulated with assay buffer were chosen as the background; cells stimulated with agonist (at […] concentration) were chosen as the negative control.\nData were recorded by ScreenWorks (version 3.1) as FMD files and stored on the GenScript computer network for off-line analysis. Data acquisition and analyses was performed using ScreenWorks (version 3.1) program and exported to Excel. The average value of 20 (1 s to 20 s) seconds reading was calculated as the baseline reading and the relative fluorescent units (ΔRFU) intensity values were calculated with the maximal fluorescent units (21 s to 120 s) subtracting the average value of baseline reading.\nThe IC50 value of AC187 was 8 μM. The inhibitory activity of the tested peptide antagonists was normalized with the negative control (AC187) and reported as % Inhibition, calculated from the following equation: % Inhibition=(ΔRFUcompound−ΔRFUBackground)/(ΔRFUNegative control−ΔRFUBackground) * 100% Inhibition was then plotted along the Y-axis, with the test concentrations as indicated on the X-axis. The peptides were tested at indicated concentrations and stimulated with 32 nM (EC80) α-CGRP (Mean +/− SD, n=2).",
  "note": "Positions of bridges follow the written chain, without caps; N, C: chain ends. Residues, ends and D or L forms follow the SMILES beside them.",
  "data": [
    {"molecule": "CC(C)C[C@@H]1NC(=O)[C@H](C)NC(=O)[C@H]([C@@H](C)O)NC(=O)[C@H](CC(=O)O)NC(=O)[C@@H](NC(=O)[C@H](C)N)CSSC[C@@H](C(=O)N[C@H](C(=O)N[C@@H](CC(C)C)C(=O)NCC(=O)N[C@@H](CCCNC(=N)N)C(=O)N[C@@H](CC(C)C)C(=O)N[C@@H](CO)C(=O)N[C@@H](CCC(N)=O)C(=O)N[C@@H](CCC(=O)O)C(=O)N[C@@H](CC(C)C)C(=O)N[C@@H](Cc2c[nH]cn2)C(=O)N[C@@H](CCCNC(=N)N)C(=O)N[C@@H](CC(C)C)C(=O)N[C@@H](CCC(N)=O)C(=O)N[C@H](C(=O)N[C@@H](Cc2ccc(O)cc2)C(=O)N2CCC[C@H]2C(=O)N[C@@H](CCCNC(=N)N)C(=O)N[C@H](C(=O)N[C@@H](CC(N)=O)C(=O)N[C@H](C(=O)NCC(=O)N[C@@H](CO)C(=O)N[C@@H](CCCCN)C(=O)N[C@@H](C)C(=O)N[C@@H](Cc2ccccc2)C(N)=O)C(C)C)[C@@H](C)O)[C@@H](C)O)C(C)C)NC1=O", "note": "[compound 9] (H-ACDTALCVLGRLSQELHRLQTYPRTNVGSKAF-NH2; disulfide 2-7 (inferred))", "values": [
      {"measurement": "inhibition at 1 µM", "value": 95.6, "unit": "%"}
    ]}
  ]
}
